# Measurements published in patent USRE38825E1, “Glyphosate tolerant plants” (Monsanto Technology LLC, priority 1990, dated 2005).
# What was measured:
# [1] = system: Agrobacterium sp. strain T10 glyphosate oxidoreductase; assay: Km of glyphosate oxidoreductase from Agrobacterium sp. strain T10; type: biochemical
# Method: A population of bacteria was isolated from a fixed-bed immobilized cell column, which employed Mannville R-635 diatomaceous earth beads, by plating on Tryptone Soy Agar (Difco), containing cylcoheximide at 100 ug/ml, and incubating at 28° C. The column had been run for three months on a waste-water feed from the Monsanto Company's Luling, MS, glyphosate production plant. The column contained 50 mg/ml glyphosate and NH3 as NH4Cl. Total organic carbon was 300 mg/ml and BOD's (Biological Oxygen Demand—a measure of “soft” carbon availability) was less than 30 mg/ml. This treatment column has been described (Heitkamp et al., 1990). […] Chromosomal DNA was prepared from this isolate and subjected to the same PCR procedure and with the same primers as described above for the strain LBr. A fragment of the correct size was generated and cloned into the E. coli expression vector. The glyphosate oxidoreductase activity was assayed and the Km for glyphosate also determined: […]
# [2] = biological target: glyphosate oxidoreductase from LBAA, wild type (w1w2w3: SER84, LYS153, HIS334), SEQ ID NO:5 (Ochrobactrum sp. G-1, UniProt D2KI28, S2A); assay: Kinetic analysis of glyphosate oxidoreductase, wild type (crude E. coli lysate, glyoxylate-DNPH assay); type: biochemical, bacterial isolate LBAA (Pseudomonas strain LBAA)
# Description: An alternate method for the assay of glyphosate oxidoreductase involves reaction of the sample with 2,4-dinitrophenylhydrazine and determination of the amount of the glyoxylate-2,4-dinitrophenylhydrazone by HPLC analysis as described in detail in a later section.
# Prior examples of engineered herbicide resistance by enzymatic inactivation of the herbicide have utilized enzymes with an ability to bind and metabilize the herbicides much more efficiently than glyphosate oxidoreductase metabolizes glyphosate.
# The mutagenesis procedure used was that of Mn++-poisoned PCR and the template was a linearized glyphosate oxidoreductase gene plasmid containing the synthetic glyphosate oxidoreductase gene (SEQ ID NO:8). The oligonucleotide primers used were homologous to regions in the vector and flanking the glyphosate oxidoreductase gene. The PCR conditions employed were as follows: 1 minute at 94° C., 2 minutes at 55° C., and 3 minutes at 72° C. and with 35 cycles. A 5:1 ratio of dCTP+dGTP+TTP to dATP was used. The reactions contained MnCl2 at 125, 250, 375, or 500 μM. After the reaction, the amplified product was recloned into a vector containing a weak E. coli promoter. This vector was a pBR327 derivative containing the araBAD promoter and suitable cloning sites. One hundred colonies from this cloning step were then screened in E. coli GB993 for improved glyphosate tolerance and utilization phenotypes in media composed of MOPS minimal medium with glyphosate and Pi or with glyphosate alone, respectively. Growth rates were determined by measuring A550 over a 96 hour period. […] The glyphosate oxidoreductase gene was recloned into the expression vector portion and this phenotype verified. All kinetic analysis was performed on crude E. coli lysates. Putative glyphosate oxidoreductase variant proteins were overexpressed after subcloning the NcoI/HindIII variant glyphosate oxidoreductase gene into PrecA-gene10L expression vector. For overexpression in PrecA-gene10L constructs, GB993 cells containing the vector were induced at a Klett=110-120 in M9 minimal medium with 50 μg/ml nalidixic acid and allowed to grow for 2.5 hours at 37° C. with vigorous shaking. Cells were harvested by centrifugation at 4000 g, 5 minutes at 4° C., and resuspend in 100 mM Tris-HCl, pH 7.1, 1 mM EDTA, 35 mM KCl, 20% glycerol, and 1 mM benzamidine at 3 ml/g cell pellet. Lysates were prepared by breaking the cells in a French press, twice, at 1000 psi. […] Protein concentrations were determined using the Bio-Rad protein dye-binding assay. […] Ten minutes was determined to be the optimal time for the enzyme assay using 10 μg lysate. […] Enzyme activity was determined from the amount of glyoxylate-DNPH adduct formed by measuring A520 against a standard of glyoxylate. […]
# [3] = system: Pseudomonas sp. strain LBr glyphosate oxidoreductase; assay: Km of glyphosate oxidoreductase from Pseudomonas sp. strain LBr; type: biochemical
# Description: Using this PCR approach, glyphosate oxidoreductase genes from a number of sources have been isolated. The presence of the glyphosate oxidoreductase activity was confirmed by cloning the glyphosate oxidoreductase gene from chromosomal DNA prepared from Pseudomonas sp. strain LBr (Jacob et al., 1988) and using primers homologous to the N- and C-termini of the LBAA glyphosate oxidoreductase gene and containing the following suitable restriction cloning sites: 5′-[…] ATG-3′ (SEQ ID NO:13) and 5′-[…] AGTAC-3′ (SEQ ID NO:14). Cyclotherm parameters used for these PCR reactions is as follows: • Denature at 94° C. for 1 minute; • Anneal at 60° C. for 2 minutes; • Polymerize at 72° C. for 3 minutes, • 30 cycles, no autoextension, linked to 4° C. incubation. The expected ˜1.3 kb PCR produced was generated and following digestion with NdeI and HindIII, this fragment was cloned into pMON2123 for expression of the encoded enzyme.
compound,measurement,setting,value
"O=C(O)CNCP(=O)(O)O [glyphosate, N-phosphonomethyl-glycine]",Km,[1],28 mM
same,VmKm,"[2]; domain switch experiment, wt (w1w2w3), substrate glyphosate",0.022
same,Km,"[2]; read-out: K for glyphosate, general statement on the glyphosate oxidoreductase enzyme",20 to 30 mM
same,VmKm (Glyp),[2]; wild type,.03
same,app Vm (Glyp),"[2]; wild type, pH 7.4, 30° C., enzyme amount by immunoblot",0.8 U/mg
same,Km,[3],25 mM
